Patent US8450313B2, “2,3-diaryl- or heteroaryl-substituted 1,1,1-trifluoro-2-hydroxypropyl compounds” (Hoffmann-La Roche Inc., priority 2009, dated 2013)

target: T1, full length human recombinant glucocorticoid receptor (Homo sapiens, UniProt P04150); assay: Glucocorticoid Receptor Binding Assay (Glucocorticoid Receptor Competitor Assay far red kit, fluorescence polarization); details: competition with fluorescent GR ligand Fluormone GS Far Red, 3 hours at 22° C., pH 7.4; Ki calculated from IC50 by Cheng-Prusoff
T1 construct: It contains some partially purified full length human recombinant glucocorticoid receptor; purchased Panvera/Invitrogen PV4302
T1 sequence (P04150 1-777): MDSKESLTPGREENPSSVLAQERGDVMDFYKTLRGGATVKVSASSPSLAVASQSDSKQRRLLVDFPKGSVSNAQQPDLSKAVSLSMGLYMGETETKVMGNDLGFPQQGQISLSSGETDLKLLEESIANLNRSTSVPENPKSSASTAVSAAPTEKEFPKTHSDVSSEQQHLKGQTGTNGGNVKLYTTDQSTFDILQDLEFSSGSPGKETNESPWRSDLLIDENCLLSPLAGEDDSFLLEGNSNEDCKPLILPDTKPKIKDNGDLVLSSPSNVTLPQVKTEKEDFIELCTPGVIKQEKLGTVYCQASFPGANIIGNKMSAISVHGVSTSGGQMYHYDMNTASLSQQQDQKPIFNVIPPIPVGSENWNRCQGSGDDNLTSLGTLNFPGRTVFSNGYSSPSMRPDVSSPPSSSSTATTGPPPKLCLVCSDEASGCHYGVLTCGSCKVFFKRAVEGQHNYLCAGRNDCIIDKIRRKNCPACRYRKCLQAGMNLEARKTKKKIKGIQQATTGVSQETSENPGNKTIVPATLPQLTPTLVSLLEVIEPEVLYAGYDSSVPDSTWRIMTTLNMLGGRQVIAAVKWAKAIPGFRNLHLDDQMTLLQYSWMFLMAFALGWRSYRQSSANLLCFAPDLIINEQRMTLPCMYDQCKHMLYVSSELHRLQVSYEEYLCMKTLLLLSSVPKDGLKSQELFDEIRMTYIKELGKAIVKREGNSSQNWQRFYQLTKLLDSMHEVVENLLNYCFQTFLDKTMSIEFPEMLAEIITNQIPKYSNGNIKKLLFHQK
Procedure, shortened: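 Fluorescence polarization competition with partially purified full-length human recombinant GR, stabilizing peptide and Fluormone GS Far Red tracer in screening buffer pH 7.4; 3 hours at 22° C in the dark, read at 610–660 nm. IC50 from sigmoidal fit; Ki by Cheng-Prusoff.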

| SMILES | Ki |
| --- | --- |
| COC(=O)c1ccc(Oc2ccc([C@H](C)[C@](O)(c3cc(C)c(C#N)c(C)c3)C(F)(F)F)c(Cl)c2)cc1F (relative stereo) [Example 141, 4-{3-Chloro-4-[2-(4-cyano-3,5-dimethyl-phenyl)-3,3,3-trifluoro-2-hydroxy-1-methyl-propyl]-phenoxy}-2-fluoro-benzoic acid methyl ester] | 1.8 nM |
| C[C@H](c1ccc(-c2ccc(C(=O)O)c(F)c2)cc1Cl)[C@@](O)(c1ccc(C#N)cc1)C(F)(F)F (relative stereo) [Example 152, 3′-Chloro-4′-[2-(4-cyano-phenyl)-3,3,3-trifluoro-2-hydroxy-1-methyl-propyl]-3-fluoro-biphenyl-4-carboxylic acid] | 46.2 nM |
| C[C@H](c1ccc(-c2ccc(C(=O)O)c(F)c2)cc1Cl)[C@@](O)(c1cccc(C#N)c1)C(F)(F)F (relative stereo) [Example 153, 3′-Chloro-4′-[2-(3-cyano-phenyl)-3,3,3-trifluoro-2-hydroxy-1-methyl-propyl]-3-fluoro-biphenyl-4-carboxylic acid] | 23.2 nM |
| C[C@H](c1ccc(Oc2ncc(C(=O)O)cc2Cl)cc1Cl)[C@@](O)(c1ccc(C#N)cc1)C(F)(F)F (relative stereo) [Example 155, 5-Chloro-6-{3-chloro-4-[2-(4-cyano-phenyl)-3,3,3-trifluoro-2-hydroxy-1-methyl-propyl]-phenoxy}-nicotinic acid] | 8.9 nM |
| C[C@@H](c1ccc(Oc2ccc(C(=O)O)c(Cl)n2)cc1Cl)[C@](O)(c1ccc2c(c1)N(C)S(=O)(=O)N2C)C(F)(F)F (relative stereo) [Example 159, 2-Chloro-6-{3-chloro-4-[2-(1,3-dimethyl-2,2-dioxo-2,3-dihydro-1H-2λ6-benzo[1,2,5]thiadiazol-5-yl)-3,3,3-trifluoro-2-hydroxy-1-methyl-propyl]-phenoxy}-nicotinic acid] | 2.1 nM |
| C[C@@H](c1ccc(-c2ccc(C(=O)O)c(F)c2)cc1Cl)[C@](O)(c1ccc2c(c1)N(C)S(=O)(=O)N2C)C(F)(F)F (relative stereo) [Example 163, 3′-Chloro-4′-[2-(1,3-dimethyl-2,2-dioxo-2,3-dihydro-1H-2λ6-benzo[1,2,5]thiadiazol-5-yl)-3,3,3-trifluoro-2-hydroxy-1-methyl-propyl]-3-fluoro-biphenyl-4-carboxylic acid] | 35.1 nM |
| C[C@H](c1ccc(O)cc1Cl)[C@@](O)(c1ccc2oc(=O)n(C)c2c1)C(F)(F)F (relative stereo) [Example 172, 5-[2-(2-Chloro-4-hydroxy-phenyl)-1-hydroxy-1-trifluoromethyl-propyl]-3-methyl-3H-benzooxazol-2-one] | 0.6 nM |
| COC(=O)c1ccc(Oc2ccc([C@@H](C)[C@@](O)(c3ccc4oc(=O)n(C)c4c3)C(F)(F)F)c(Cl)c2)nc1 (relative stereo) [Example 174, 6-{3-Chloro-4-[3,3,3-trifluoro-2-hydroxy-1-methyl-2-(3-methyl-2-oxo-2,3-dihydro-benzooxazol-5-yl)-propyl]-phenoxy}-nicotinic acid methyl ester] | 2 nM |

Next, values leading:

| Ki | SMILES |
| --- | --- |
| 0.6 nM | COC(=O)c1ccc(Oc2ccc([C@H](C)[C@](O)(c3cc4c(cc3F)OCC(=O)N4C)C(F)(F)F)c(Cl)c2)cc1Cl (relative stereo) [Example 138, 2-Chloro-4-{3-chloro-4-[3,3,3-trifluoro-2-(7-fluoro-4-methyl-3-oxo-3,4-dihydro-2H-benzo[1,4]oxazin-6-yl)-2-hydroxy-1-methyl-propyl]-phenoxy}-benzoic acid methyl ester] |
| 2.5 nM | Cc1cc([C@@](O)([C@@H](C)c2ccc(Oc3ccc(C(=O)O)c(Cl)c3)cc2Cl)C(F)(F)F)cc(C)c1C#N (relative stereo) [Example 144, 2-Chloro-4-{3-chloro-4-[2-(4-cyano-3,5-dimethyl-phenyl)-3,3,3-trifluoro-2-hydroxy-1-methyl-propyl]-phenoxy}-benzoic acid] |
| 2.2 nM | C[C@H](c1ccc(Oc2ccc(C(=O)O)c(Cl)n2)cc1Cl)[C@@](O)(c1ccc2c(c1)OCC(=O)N2C)C(F)(F)F (relative stereo) [Example 158, 2-Chloro-6-{3-chloro-4-[3,3,3-trifluoro-2-hydroxy-1-methyl-2-(4-methyl-3-oxo-3,4-dihydro-2H-benzo[1,4]oxazin-7-yl)-propyl]-phenoxy}-nicotinic acid] |
| 1.3 nM | C[C@H](c1ccc(Oc2ccc(C(=O)O)c(Cl)c2)cc1Cl)[C@@](O)(c1ccc2c(c1)OCC(=O)N2C)C(F)(F)F (relative stereo) [Example 160, 2-Chloro-4-{3-chloro-4-[3,3,3-trifluoro-2-hydroxy-1-methyl-2-(4-methyl-3-oxo-3,4-dihydro-2H-benzo[1,4]oxazin-7-yl)-propyl]-phenoxy}-benzoic acid] |
| 3.6 nM | C[C@@H](c1ccc(Oc2ccc(C(=O)O)c(Cl)c2)cc1Cl)[C@](O)(c1ccc2c(c1)N(C)S(=O)(=O)N2C)C(F)(F)F (relative stereo) [Example 161, 2-Chloro-4-{3-chloro-4-[2-(1,3-dimethyl-2,2-dioxo-2,3-dihydro-1H-2λ6-benzo[1,2,5]thiadiazol-5-yl)-3,3,3-trifluoro-2-hydroxy-1-methyl-propyl]-phenoxy}-benzoic acid] |
| 10.8 nM | C[C@@H](c1ccc(-c2ccc(F)c(C(=O)O)c2)cc1Cl)[C@](O)(c1ccc2c(c1)N(C)S(=O)(=O)N2C)C(F)(F)F (relative stereo) [Example 162, 3′Chloro-4′-[2-(1,3-dimethyl-2,2-dioxo-2,3-dihydro-1H-2λ6-benzo[1,2,5]thiadiazol-5-yl)-3,3,3-trifluoro-2-hydroxy-1-methyl-propyl]-4-fluoro-biphenyl-3-carboxylic acid] |
| 3.1 nM | C[C@H](c1ccc(Oc2ccc(F)c(C(=O)O)c2)cc1Cl)[C@@](O)(c1ccc2c(c1)OCC(=O)N2C)C(F)(F)F (relative stereo) [Example 167, 5-{3-Chloro-4-[3,3,3-trifluoro-2-hydroxy-1-methyl-2-(4-methyl-3-oxo-3,4-dihydro-2H-benzo[1,4]oxazin-7-yl)-propyl]phenoxy}-2-fluoro-benzoic acid] |
| 609 nM | C[C@H](c1ccc(-c2ccc(C(=O)O)c(F)c2)cc1Cl)[C@@](O)(c1ccc2c(c1)N(C)C(=O)C(C)(C)O2)C(F)(F)F (relative stereo) [Example 168, 3′-Chloro-3-fluoro-4′-[3,3,3-trifluoro-2-hydroxy-1-methyl-2-(2,2,4-trimethyl-3-oxo-3,4-dihydro-2H-benzo[1,4]oxazin-6-yl)-propyl]-biphenyl-4-carboxylic acid] |
| 28.2 nM | C[C@H](c1ccc(Oc2ccc(C(=O)O)cn2)cc1Cl)[C@@](O)(c1ccc2c(c1)OCC(=O)N2C)C(F)(F)F (relative stereo) [Example 169, 6-{3-Chloro-4-[3,3,3-trifluoro-2-hydroxy-1-methyl-2-(4-methyl-3-oxo-3,4-dihydro-2H-benzo[1,4]oxazin-7-yl)-propyl]-phenoxy}-nicotinic acid] |
| 1.1 nM | C[C@H](c1ccc(Oc2ccc(C(=O)O)c(Cl)c2)cc1Cl)[C@@](O)(c1ccc2oc(=O)n(C)c2c1)C(F)(F)F (relative stereo) [Example 173, 2-Chloro-4-{3-chloro-4-[3,3,3-trifluoro-2-hydroxy-1-methyl-2-(3-methyl-2-oxo-2,3-dihydro-benzooxazol-5-yl)-propyl]-phenoxy}-benzoic acid] |
